Results on four compounds are retold here after patent publication US20060063754A1, “Methods of treating a sleep disorder” (priority 2004, published 2006).

Molecules are shown by their SMILES. Where two headings read alike, the source gives them in different places.

Broadly, the Ki is a measure of affinity in units of concentration, obtained from inhibition or displacement.

Data set [1] has as its target T1, human recombinant M3 muscarinic receptor expressed in CHO cells (Homo sapiens, UniProt P20309).
T1 construct: purchased PerkinElmer, Inc., Wellesley, Mass; host or cells: CHO cells
Description: M3 muscarinic receptor binding assay.

A further data set relates to male Wistar rats. Description: Sleep-wakefulness monitoring (SCORE-2000, EEG/EMG) in rats. The format is in vivo, rat. Conditions: oral bolus at CT-18, male Wistar rats. As to the method:
Sleep-wakefulness, locomotor activity and body temperature are monitored in male Wistar rats treated with a test compound initially at a concentration of 10 mg/kg. Higher and lower doses are assayed for select compounds (e.g., as high as 45 mg/kg, and as low as necessary to establish a no-effect dose). Treatments are administered at CT-18, the peak of the activity dominated period (6 hours after lights-off), and produce soporific (sleep-inducing) effects characterized by increased non-REM sleep time, increased sleep continuity, but without evidence of REM sleep inhibition or rebound insomnia.
Sleep-wakefulness, locomotor activity and body temperature were monitored in vivo with certain of the disclosed sleep-inducing agents (e.g., Compounds 1 and 2) and other compounds described herein. Adult, male Wistar rats (250 g at time of surgery, Charles River Laboratories, Wilmington Mass.) were anesthetized (2% isoflourane in medical grade oxygen) and surgically prepared with a cranial implant to permit chronic electro-encephalogram (EEG) and electromyogram (EMG) recording. Body temperature and locomotor activity were monitored via a miniature transmitter (Mini-Mitter, Bend, Oreg.) surgically placed in the abdomen. The cranial implant consisted of stainless steel screws (two frontal (+3.2 AP from bregma, ±2.0 ML) and two occipital (−6.9 AP, ±5.5 ML)) for EEG recording. Two Teflon®-coated stainless steel wires were positioned under the nuchal trapezoid muscles for EMG recording. All leads were soldered to a miniature connector prior to surgery, and gas sterilized in ethylene oxide. The implant assembly was affixed to the skull with dental acrylic. A minimum of three weeks was allowed for surgical recovery.
Each rat was permanently housed in its own individual recording cage located within separate, ventilated compartments of custom-designed stainless steel cabinets. Each cage was enhanced with a filter-top riser and low-torque swivel-commutator. Food and water were available ad libitum. A 24-hr light-dark cycle (12 hours light, 12 hours dark) was maintained throughout the study. Animals were undisturbed for at least 48 hours before and after treatments.
Sleep and wakefulness were determined using “SCORE-2000™” (Hypnion, Worcester, Mass.)—an internet-based sleep-wake and physiological monitoring system. The system monitored amplified EEG (bandpass 1-30 Hz), integrated EMG (bandpass 10-100 Hz), body temperature and non-specific locomotor activity (LMA) via telemetry, and drinking activity, continuously and simultaneously. Arousal states were classified on-line as non-REM (NREM) sleep, REM sleep, wake, or theta-dominated wake every 10 seconds. Total drinking and locomotor activity counts, and body temperature were quantitated and recorded each minute, using EEG feature extraction and pattern-matching algorithms. […] The classification algorithm used individually-taught EEG-arousal-state templates, plus EMG criteria to differentiate REM sleep from theta-dominated wakefulness, plus behavior-dependent contextual rules (e.g., if the animal was drinking, it is awake). Drinking and locomotor activity intensity (LMA) were recorded every 10 seconds, while body temperature was recorded each minute. Locomotor activity was detected by a telemetry receiver (Mini-Mitter) beneath the cage. Telemetry measures (LMA and body temperature) were not part of the scoring algorithm; thus, sleep-scoring and telemetry data were independent measures.
Compounds were administered at CT-18, the peak of the activity-dominated period, sufficient time was allowed to view the time course of the treatment effect before lights-on (6 hours post-treatment). Compounds were suspended in sterile 0.25% or 0.5% methylcellulose (1-2 ml/kg). Treatments were administered orally as a bolus.
A parallel group study design was employed. […]

The target in data set [2] is T2, human recombinant M2 muscarinic receptor expressed in CHO cells (Homo sapiens, UniProt P08172).
T2 construct: purchased PerkinElmer, Inc., Wellesley, Mass; host or cells: CHO cells
T2 sequence (P08172 1-466): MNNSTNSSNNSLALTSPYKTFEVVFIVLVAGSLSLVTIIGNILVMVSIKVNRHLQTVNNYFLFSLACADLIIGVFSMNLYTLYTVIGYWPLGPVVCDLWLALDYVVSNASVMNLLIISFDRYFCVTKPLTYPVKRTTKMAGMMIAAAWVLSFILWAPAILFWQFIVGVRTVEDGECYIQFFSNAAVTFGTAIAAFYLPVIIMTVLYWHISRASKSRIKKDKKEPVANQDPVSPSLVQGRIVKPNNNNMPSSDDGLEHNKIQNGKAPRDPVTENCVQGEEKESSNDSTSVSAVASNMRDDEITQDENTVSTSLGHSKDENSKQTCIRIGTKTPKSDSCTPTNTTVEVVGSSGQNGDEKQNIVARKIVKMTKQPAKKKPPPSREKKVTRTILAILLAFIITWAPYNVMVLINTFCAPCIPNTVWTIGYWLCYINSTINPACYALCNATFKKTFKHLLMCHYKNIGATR
Put plainly: M2 muscarinic receptor binding assay.

Data set [3] has as its target T3, human recombinant M1 muscarinic receptor expressed in CHO cells (Homo sapiens, UniProt P11229).
T3 construct: purchased PerkinElmer, Inc., Wellesley, Mass; host or cells: CHO cells
T3 sequence (P11229 1-460): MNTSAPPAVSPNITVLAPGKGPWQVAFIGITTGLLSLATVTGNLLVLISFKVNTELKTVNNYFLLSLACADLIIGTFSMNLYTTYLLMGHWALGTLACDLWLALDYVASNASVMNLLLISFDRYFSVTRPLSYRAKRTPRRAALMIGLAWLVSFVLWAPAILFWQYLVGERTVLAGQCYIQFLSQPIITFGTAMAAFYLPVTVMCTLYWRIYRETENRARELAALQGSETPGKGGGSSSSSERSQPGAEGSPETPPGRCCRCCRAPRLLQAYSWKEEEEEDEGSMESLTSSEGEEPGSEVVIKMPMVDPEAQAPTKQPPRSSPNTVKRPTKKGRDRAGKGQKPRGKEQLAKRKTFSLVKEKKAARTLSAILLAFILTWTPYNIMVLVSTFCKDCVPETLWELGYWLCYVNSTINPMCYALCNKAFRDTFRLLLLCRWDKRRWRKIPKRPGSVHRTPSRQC
Put plainly: M1 muscarinic receptor binding assay ([3H]-scopolamine, N-methyl chloride).

Another data set concerns the target alpha 1 receptor. Description: alpha 1 receptor binding assay. Conditions: read-out: Ki Alpha1. As to the method:
(§1) Binding assays were performed using Compound 1 and 2 in competitive binding assays with known standards for the H1 histamine receptor, and the M1, M2, and M3 muscarinic receptors, alpha 1 and alpha 2 receptors, and D1 and D2 receptors.

A further data set addresses T4, H1 histamine receptor (Bos taurus, UniProt P30546).
T4 construct: the receptors were obtained from bovine cerebellar membrane tissue; from tissue; host or cells: bovine cerebellar membranes
Put plainly: H1 histamine receptor competitive binding assay ([3H]pyrilamine). Further details: species or system bovine.

The target of another data set is D2 receptor (Homo sapiens, UniProt P14416). Description: Dopamine D2 binding assay.
The target of another data set is alpha 2 receptor. Description: alpha 2 receptor binding assay. Conditions: read-out: Ki Alpha2. On the procedure:
as §1

Data set [4] concerns the target Dopamine, D1 (human recombinant) (Homo sapiens, UniProt P21728). Description: Dopamine D1 binding assay. As to the method:
Dopamine, D1 (human recombinant) binding assay was performed according to published procedures. See, e.g., Jarvie, et al. J. Recept Res., 13(1-4): 573-90 (1993); and Billard, et al. Life Sciences, 35(18): 1885-93 (1984), with modifications

In a further data set the target is hERG channel (Homo sapiens, UniProt Q12809). Put plainly: hERG channel current block, whole cell patch clamp in HEK293 cells. The format is cell-based. Conditions: HEK293 cells expressing hERG, room temperature. As to the method:
In the hERG assay, hERG channels are expressed in a human embryonic kidney cell line (HEK293) that lacks endogenous IKr. […] (See, Rampe 1997).
In one embodiment of the hERG assay, the positive control (i.e., reference compound) is terfenadine (Sigma, St. Louis Mo.), which has been shown, at a concentration of 60 nM, to block hERG current by approximately 75%. Test compounds are delivered in HEPES-buffered physiological saline (HB-PS)+0.1% dimethyl sulfoxide (DMSO). Each test compound is applied at a concentration of 10 μM to the HEK293 cells expressing hERG (n≧3, where n=the number of cells). Cells are exposed to the test compound for the time necessary to reach steady-state block, but not longer than 10 minutes. The positive control ([…] terfenadine) is applied to two cells (n≧2).
The hERG-exposed cells are then transferred to the recording chamber and superfused with HB-PS solution. The pipette solution for whole cell recordings includes potassium aspartate (130 mM), MgCl2 (5 mM), EGTA (5 mM), ATP (4 mM), and HEPES (10 mM) at a pH adjusted to 7.2 with KOH. Onset and steady state block of hERG current due to the test compound are measured using a pulse pattern with fixed amplitudes (depolarization: +20 mV for 2 seconds; repolarization: −50 mV for 2 seconds), repeated at 10 second intervals, from a holding potential of −80 mV. Peak tail current is measured during the 2 second step to −50 mV. A steady state is maintained for at least 30 seconds before applying the test compound or positive control compound. Peak tail currents are measured until a new steady state is achieved.
The in vitro effects of the disclosed sleep-inducing agents on the hERG (human ether-à-go-go-related gene) channel current (IKr, the rapidly activating, delayed rectifier cardiac potassium current) were determined by ChanTest (Cleveland, Ohio) according to Standard Operating Procedures of ChanTest.
All chemicals used were purchased from Sigma (St. Louis, Mo.) unless otherwise noted and were of ACS reagent grade purity or higher. […]

In data set [5] the target is T3, human recombinant M1 muscarinic receptor expressed in CHO cells. To be noted: reference compounds; read-out: Ki of reference compounds in M1 binding assay; cited from earlier work.

Sequence of hERG channel (Q12809 whole entry): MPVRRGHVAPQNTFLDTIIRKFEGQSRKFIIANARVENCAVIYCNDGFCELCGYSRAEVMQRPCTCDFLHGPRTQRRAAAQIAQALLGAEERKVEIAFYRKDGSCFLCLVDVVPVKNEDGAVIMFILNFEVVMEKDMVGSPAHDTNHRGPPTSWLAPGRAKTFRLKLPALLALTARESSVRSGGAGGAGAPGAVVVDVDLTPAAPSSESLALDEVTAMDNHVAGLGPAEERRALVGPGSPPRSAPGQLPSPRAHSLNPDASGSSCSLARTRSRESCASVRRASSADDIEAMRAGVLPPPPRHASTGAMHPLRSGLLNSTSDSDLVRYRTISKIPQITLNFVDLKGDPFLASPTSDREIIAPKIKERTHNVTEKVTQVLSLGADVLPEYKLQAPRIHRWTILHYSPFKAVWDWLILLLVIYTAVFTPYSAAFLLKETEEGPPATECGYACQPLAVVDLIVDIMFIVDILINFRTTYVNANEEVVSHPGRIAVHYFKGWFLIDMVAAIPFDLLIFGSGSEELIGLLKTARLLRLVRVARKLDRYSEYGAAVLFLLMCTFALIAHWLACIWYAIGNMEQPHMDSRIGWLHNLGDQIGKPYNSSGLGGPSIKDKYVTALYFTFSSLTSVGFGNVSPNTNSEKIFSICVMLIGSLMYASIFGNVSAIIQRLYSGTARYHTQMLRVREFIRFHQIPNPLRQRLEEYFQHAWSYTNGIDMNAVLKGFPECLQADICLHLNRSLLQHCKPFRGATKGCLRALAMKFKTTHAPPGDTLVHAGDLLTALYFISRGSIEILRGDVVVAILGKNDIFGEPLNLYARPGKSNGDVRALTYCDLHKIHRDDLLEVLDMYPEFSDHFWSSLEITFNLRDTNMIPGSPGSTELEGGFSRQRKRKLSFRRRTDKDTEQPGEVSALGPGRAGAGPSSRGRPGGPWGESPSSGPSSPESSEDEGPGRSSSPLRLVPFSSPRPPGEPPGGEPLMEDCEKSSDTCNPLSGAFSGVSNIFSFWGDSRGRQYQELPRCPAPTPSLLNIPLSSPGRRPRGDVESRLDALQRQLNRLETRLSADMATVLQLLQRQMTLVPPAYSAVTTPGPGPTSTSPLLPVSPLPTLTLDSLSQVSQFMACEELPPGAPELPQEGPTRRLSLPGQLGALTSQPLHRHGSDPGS
Sequence of D2 receptor (P14416 whole entry): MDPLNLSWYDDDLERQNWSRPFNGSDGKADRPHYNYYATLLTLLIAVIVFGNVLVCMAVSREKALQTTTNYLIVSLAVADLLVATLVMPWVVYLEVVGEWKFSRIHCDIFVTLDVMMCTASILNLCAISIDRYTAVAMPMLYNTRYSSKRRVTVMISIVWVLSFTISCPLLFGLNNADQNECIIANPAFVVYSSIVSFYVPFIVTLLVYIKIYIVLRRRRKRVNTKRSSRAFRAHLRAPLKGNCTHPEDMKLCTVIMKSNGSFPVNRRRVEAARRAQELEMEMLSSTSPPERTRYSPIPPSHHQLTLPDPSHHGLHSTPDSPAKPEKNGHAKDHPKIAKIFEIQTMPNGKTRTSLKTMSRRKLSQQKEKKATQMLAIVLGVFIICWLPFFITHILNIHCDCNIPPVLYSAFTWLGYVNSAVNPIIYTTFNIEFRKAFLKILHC
T1 sequence (P20309 whole entry): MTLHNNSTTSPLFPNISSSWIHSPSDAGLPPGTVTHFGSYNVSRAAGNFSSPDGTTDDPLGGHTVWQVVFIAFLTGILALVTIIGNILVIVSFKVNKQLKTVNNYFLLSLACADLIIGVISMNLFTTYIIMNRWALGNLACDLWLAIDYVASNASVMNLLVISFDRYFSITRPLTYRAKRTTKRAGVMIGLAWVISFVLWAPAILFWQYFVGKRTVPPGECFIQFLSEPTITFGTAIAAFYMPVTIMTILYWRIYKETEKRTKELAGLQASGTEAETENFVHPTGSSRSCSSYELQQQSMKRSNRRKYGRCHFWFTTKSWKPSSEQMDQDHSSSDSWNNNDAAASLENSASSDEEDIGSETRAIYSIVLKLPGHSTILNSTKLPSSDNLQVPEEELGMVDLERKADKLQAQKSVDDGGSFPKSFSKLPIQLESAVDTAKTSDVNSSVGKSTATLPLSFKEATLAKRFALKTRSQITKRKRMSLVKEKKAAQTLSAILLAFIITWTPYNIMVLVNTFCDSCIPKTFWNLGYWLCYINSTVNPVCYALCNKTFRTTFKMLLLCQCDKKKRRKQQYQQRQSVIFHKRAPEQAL
T4 sequence (P30546 whole entry): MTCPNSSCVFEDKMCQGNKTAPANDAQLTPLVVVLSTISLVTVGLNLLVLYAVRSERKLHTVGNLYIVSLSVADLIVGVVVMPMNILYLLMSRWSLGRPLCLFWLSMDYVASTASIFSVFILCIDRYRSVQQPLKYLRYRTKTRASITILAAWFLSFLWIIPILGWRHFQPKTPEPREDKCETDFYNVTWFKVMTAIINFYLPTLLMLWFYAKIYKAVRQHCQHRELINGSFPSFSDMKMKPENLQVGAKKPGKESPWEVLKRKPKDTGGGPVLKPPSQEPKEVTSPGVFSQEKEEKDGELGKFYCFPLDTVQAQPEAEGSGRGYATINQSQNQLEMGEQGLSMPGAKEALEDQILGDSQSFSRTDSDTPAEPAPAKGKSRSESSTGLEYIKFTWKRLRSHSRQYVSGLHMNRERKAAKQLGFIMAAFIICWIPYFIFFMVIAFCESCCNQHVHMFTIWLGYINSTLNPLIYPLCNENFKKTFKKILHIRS
Sequence of Dopamine, D1 (human recombinant) (P21728 whole entry): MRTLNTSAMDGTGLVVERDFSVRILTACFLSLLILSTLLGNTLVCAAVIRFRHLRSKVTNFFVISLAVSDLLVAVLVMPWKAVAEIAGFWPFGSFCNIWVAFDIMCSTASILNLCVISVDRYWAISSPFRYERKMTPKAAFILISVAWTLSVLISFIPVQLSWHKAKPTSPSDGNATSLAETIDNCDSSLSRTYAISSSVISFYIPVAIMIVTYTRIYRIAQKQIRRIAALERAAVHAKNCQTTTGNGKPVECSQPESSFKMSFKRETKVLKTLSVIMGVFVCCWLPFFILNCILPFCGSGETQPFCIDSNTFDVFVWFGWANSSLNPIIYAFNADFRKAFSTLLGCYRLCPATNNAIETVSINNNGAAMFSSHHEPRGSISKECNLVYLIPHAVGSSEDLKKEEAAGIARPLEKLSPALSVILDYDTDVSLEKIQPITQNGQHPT

On to `O=C(O)CCN1CCN(C2=Nc3ccccc3Oc3ccccc32)CC1` [Compound 1], for which the inhibitory constant (Ki) in data set [1] is over 10 µM; in data set [2], over 10 µM; in data set [3] it was over 10 µM; on alpha 1 receptor, over 10 µM; at H1 histamine receptor, 0.041 µM; on D2 receptor, over 10 µM. Also, the Ki was over 10 µM on alpha 2 receptor and 1.13 µM in data set [4]. In addition, the “LUSB (longest uninterrupted sleep bout)” value with male Wistar rats (dose 10 mg/kg) worked out at 13.2 ± 3.3 min. In the data set with male Wistar rats (dose 10 mg/kg), this compound displayed an NREM of 22 ± 6 min. In addition, on hERG channel, the “hERG at 10 micromolar (% blocking of the hERG channel)” value is 0.70%.

As for `O=C(O)CCCN1CCN(C2=Nc3ccccc3Oc3ccccc32)CC1` [Compound 2], the inhibition constant Ki in [1] was over 10 µM; in data set [2] it was over 10 µM; in data set [3], over 10 µM; on alpha 1 receptor, 3.27 µM; at H1 histamine receptor, 0.0542 µM; on D2 receptor, over 10 µM. For the same compound, the Ki is over 10 µM at alpha 2 receptor and 6.24 µM in data set [4]. In addition, the “LUSB (longest uninterrupted sleep bout)” value in the data set with male Wistar rats (dose 3 mg/kg) worked out at 3.8 ± 2.2 min; in the data set on male Wistar rats (dose 10 mg/kg), 7.2 ± 2.0 min. The compound also yielded an NREM in the data set with male Wistar rats (dose 10 mg/kg) of 38 ± 6 min. Besides, the “hERG at 10 micromolar (% blocking of the hERG channel)” value on hERG channel amounted to 2.60%.

Regarding `O=C(O)CCN1CCN(C2=Nc3ccccc3Sc3ccccc32)CC1` [Compound 3], the “LUSB (longest uninterrupted sleep bout)” value in the data set with male Wistar rats (dose 3 mg/kg) was found to be 6 ± 1.9 min. In addition, in the data set on male Wistar rats (dose 10 mg/kg), the “LUSB (longest uninterrupted sleep bout)” value was 5 ± 2.0 min and the NREM was 43 ± 6 min. In addition, the “hERG at 10 micromolar (% blocking of the hERG channel)” value on hERG channel was 0.80%.

On to `C[N+]1(C)CCC(OC(=O)C(c2ccccc2)c2ccccc2)CC1` [4-DAMP methiodide], for which, in data set [5], the inhibition constant (Ki) is 0.00027 µM.
